Measurements from patent US20220296628A1, “RNA COMBINATIONS AND COMPOSITIONS WITH DECREASED IMMUNOSTIMULATORY PROPERTIES” (CureVac AG, priority 2019, published 2022).

Assays:
[1] = tested on: mice (strain 129SV); experiment: PpLuc expression in liver lysates after i.v. injection of LNP-formulated PpLuc mRNA with or without oligonucleotide; assay type: in vivo, mouse; details: 24 hours post i.v. injection, 10 μg or 30 μg mRNA (either dose), compared to PpLuc mRNA without oligonucleotide (FIG. 3)
Method: For preparation of Lipid nanoparticles (LNP) containing both PpLuc mRNA and 2-O-methylated oligonucleotide, first the 2′-O-methylated oligonucleotide was added to PpLuc mRNA at a weight percentage of either 20% or 6.7% (see Table 3). LNP containing PpLuc mRNA either with or without admixture of 2-O-methylated oligonucleotide were prepared using cationic lipid, cholesterol, PEG-lipid and a neutral lipid. The mRNA was diluted to 1 g/L in citrate buffer, pH 4. The ethanolic lipid solution was mixed with the aqueous RNA solution at a ratio of 1:3 (vol/vol) using a Nanoassemblr (PrecisionNanoSystems). The ethanol was then removed and the buffer replaced by 10 mM HEPES, pH 7.4 comprising 9% Sucrose by dialysis. Finally, the LNP-formulated RNA was adjusted to 0.2 g/L.
For in vivo experiments, 8 weeks old female mice (around 25 g, strain 129SV) were injected with the various LNP formulations (see tables 4 and 5). 4 animals were used per group. […]
To prepare tissue lysates, first a steal bead was added to each liver. […] Plates were introduced into a plate reader (Berthold Technologies TriStar2 LB 942) and 50 μl per well of Beetle-Juice (PJK GmbH) containing luciferin as substrate for firefly luciferase was injected. Luciferase activity was quantified as relative light units (RLU). […]

[2] = tested on: mice (strain 129SV); experiment: Serum cytokines by CBA 6 hours post LNP injection; assay type: in vivo, mouse; details: 6 hours post i.v. LNP injection, in a dose-dependent manner (oligo 20% or 6.7% mass), compared to PpLuc mRNA only (FIG. 4A)
Method: In supernatants collected from PBMC stimulated without or with 2-O-methylated oligonucleotide, the concentrations of IFN-α, IFN-γ, TNF, were measured by Cytometric Bead Array (CBA) according to the manufacturer's instructions (BD Biosciences) using the following kits: Human Soluble Protein Master Buffer Kit (catalog no. 558264), Assay Diluent (catalog no. 560104), Human IFN-α Flex Set (catalog no. 560379), Human IFN-γ Flex Set (catalog no. 558269), Human TNF Flex Set (catalog no. 560112); all kits from BD Biosciences. The data was analyzed using the FCAP Array v3.0 software (BD Biosciences). For preparation of Lipid nanoparticles (LNP) containing both PpLuc mRNA and 2-O-methylated oligonucleotide, first the 2′-O-methylated oligonucleotide was added to PpLuc mRNA at a weight percentage of either 20% or 6.7% (see Table 3). LNP containing PpLuc mRNA either with or without admixture of 2-O-methylated oligonucleotide were prepared using cationic lipid, cholesterol, PEG-lipid and a neutral lipid. The mRNA was diluted to 1 g/L in citrate buffer, pH 4. The ethanolic lipid solution was mixed with the aqueous RNA solution at a ratio of 1:3 (vol/vol) using a Nanoassemblr (PrecisionNanoSystems). The ethanol was then removed and the buffer replaced by 10 mM HEPES, pH 7.4 comprising 9% Sucrose by dialysis. Finally, the LNP-formulated RNA was adjusted to 0.2 g/L. For in vivo experiments, 8 weeks old female mice (around 25 g, strain 129SV) were injected with the various LNP formulations (see tables 4 and 5). 4 animals were used per group. 10 μg or 30 μg of mRNA formulated with or without 2′-O-methylated oligonucleotide were intravenously injected at a concentration of 0.2 g/l. Bioluminescence imaging was performed 6 hours and 24 hours post LNP injection. Blood was sampled 6 hours post LNP injection and terminally 24 hours post LNP injection. Immediately thereafter, mice were sacrificed, livers collected and placed in 1.5 ml PP tubes, frozen and stored until analysis (<−70° C.). To analyse the influence of the 2′-O-methylated oligonucleotide on immunostimulation, the concentrations of IFNγ, TNFα, IL-6, MIP-1β, RANTES, and MCP1 were measured in sera from blood collected 6 hours post LNP injection by Cytometric Bead Array (CBA), performed as described in paragraph 2.3. […] To further assess the influence of the 2′-O-methylated oligonucleotide on immunostimulation, the concentration of IFNα was measured in sera from blood collected 24 hours post LNP injection by ELISA.

5′-GAG CGmG CCA-3′ (GAGCNGCCA; 2'-O-methyl guanosine at position 5; 9mer oligonucleotide; modified_base (5)..(5) n can be any nucleotide, wherein the nucleotide is 2-O-methylated, preferably a 2-O-methylated guanosine) [Gm18, 9-mer 2′-O-methylated RNA oligonucleotide; position 5 is 2′-O-methylated guanosine (Gm); antagonist of TLR7 and 8]
expression of PpLuc in liver lysates (luciferase activity) [1]: increases the expression | release of IFNγ in sera [2]: strongly decreases the release | release of IL-6 in sera [2]: strongly decreases the release | release of MCP1 in sera [2]: strongly decreases the release | release of MIP-1β in sera [2]: strongly decreases the release | release of RANTES in sera [2]: strongly decreases the release | release of TNFα in sera [2]: strongly decreases the release
